# Tested on: L1210
# Assay: Cytotoxicity of compound was determined in terms of effective concentration required against murine L1210 cells
# Assay type: functional, cell-based
# Conditions: Mus musculus
compound,measurement,value
"O=C1NC(O)C=Cc2c1ncn2C1O[C@H](CO)C(O)[C@H]1O (single isomer, unassigned)",EC50,5 µg/mL

# — ChEMBL document CHEMBL1127178, “Nucleosides and nucleotides. 117. A transition-state analogue in purine nucleotide biosynthesis: the design and synthesis of an imidazo[4,5-c]azepine nucleoside” (Bioorg Med Chem Lett, 1993)
